Data from patent publication KR20110060529A, “시클로헥산 디카르복실산 유도체를 함유하는 피부 외용제 조성물” ((주)아모레퍼시픽, priority 2009, dated 2011).

Legend:
Type in all cases: in vitro ADME, guinea pig
[1] = Test Example 2: skin absorption of ascorbyl glucoside (Franz permeation cell, HPLC)
[2] = Test Example 3: skin absorption of arbutin (Franz permeation cell, HPLC)
[3] = Test Example 4: skin absorption of vitamin A (retinoic acid) (Franz permeation cell, HPLC)

**Q.** Which results are given for `CCOCCOCCOC(=O)C1CCC(C(=O)OCCOCCOCC)CC1` (stereo not drawn) [시클로헥산 디카르복실산 유도체, Bis-Ethoxydiglycol Cyclohexane 1,4-Dicarboxylate]?
**A.** increase in skin absorption of ascorbyl glucoside [1]: 5~6 fold; increase in skin absorption of arbutin [2]: 5~6 fold; increase in skin absorption of retinoic acid [3]: 2~3 fold
